# Columns and labels:
# Type in all cases: functional
# [1] = test system: Aliivibrio fischeri; experiment: Antimicrobial activity against Aliivibrio fischeri DSM507 assessed as growth inhibition at 0.1 uM incubated for 24 hrs by luminescence based assay relative to control; details: DSM507, 24 h, read-out: GI
# [2] = test system: Aliivibrio fischeri; experiment: Antimicrobial activity against Aliivibrio fischeri DSM507 assessed as growth inhibition at 1 uM incubated for 24 hrs by luminescence based assay relative to control; details: DSM507, 24 h, read-out: GI
# [3] = test system: Aliivibrio fischeri; experiment: Antimicrobial activity against Aliivibrio fischeri DSM507 assessed as growth inhibition incubated for 24 hrs by luminescence based assay; details: DSM507, 24 h
SMILES,inhibition of growth at 0.1 µM [1] [%],inhibition of growth at 1 µM [2] [%],MIC [3] [µM]
CC[C@H]1OC(=O)C[C@@H](O)[C@H](C)[C@@H](O[C@@H]2O[C@H](C)[C@@H](O)[C@H](N(C)C)[C@H]2O)[C@@H](C[C@H](C(=O)NC(C)(C)C)N(C)C(C)=O)C[C@@H](C)C(=O)/C=C/C(C)=C/[C@@H]1CO[C@H]1O[C@@H](C)[C@H](O)[C@H](OC)[C@@H]1OC,12,64,–
CC[C@H]1OC(=O)C[C@@H](O)[C@H](C)[C@@H](O[C@@H]2O[C@H](C)[C@@H](O)[C@H](N(C)C)[C@H]2O)[C@@H](CC(C(=O)NC(C)(C)C)N(C(=O)c2ccccc2)C(C)C)C[C@@H](C)C(=O)/C=C/C(C)=C/[C@@H]1CO[C@H]1O[C@@H](C)[C@H](O)[C@H](OC)[C@@H]1OC (mixture of isomers),54,79,–
CC[C@H]1OC(=O)C[C@@H](O)[C@H](C)[C@@H](O[C@@H]2O[C@H](C)[C@@H](O)[C@H](N(C)C)[C@H]2O)[C@@H](CC(C(=O)NC2CCCCC2)N(C(=O)c2ccccc2)C(C)C)C[C@@H](C)C(=O)/C=C/C(C)=C/[C@@H]1CO[C@H]1O[C@@H](C)[C@H](O)[C@H](OC)[C@@H]1OC (mixture of isomers),21,44,–
CC[C@H]1OC(=O)C[C@@H](O)[C@H](C)[C@@H](O[C@@H]2O[C@H](C)[C@@H](O)[C@H](N(C)C)[C@H]2O)[C@@H](CC(C(=O)NC(C)(C)C)N(CCNC(=O)OC(C)(C)C)C(=O)c2ccccc2)C[C@@H](C)C(=O)/C=C/C(C)=C/[C@@H]1CO[C@H]1O[C@@H](C)[C@H](O)[C@H](OC)[C@@H]1OC (mixture of isomers),34,56,–
CCCC(=O)N(C)C(C[C@H]1C[C@@H](C)C(=O)/C=C/C(C)=C/[C@H](CO[C@H]2O[C@@H](C)[C@H](O)[C@H](OC)[C@@H]2OC)[C@@H](CC)OC(=O)C[C@@H](O)[C@H](C)[C@H]1O[C@@H]1O[C@H](C)[C@@H](O)[C@H](N(C)C)[C@H]1O)C(=O)NC(C)(C)C (mixture of isomers),26,73,–
CCCCNC(=O)C(C[C@H]1C[C@@H](C)C(=O)/C=C/C(C)=C/[C@H](CO[C@H]2O[C@@H](C)[C@H](O)[C@H](OC)[C@@H]2OC)[C@@H](CC)OC(=O)C[C@@H](O)[C@H](C)[C@H]1O[C@@H]1O[C@H](C)[C@@H](O)[C@H](N(C)C)[C@H]1O)N(C)C(=O)CCC (mixture of isomers),15,62,–
CC[C@H]1OC(=O)C[C@@H](O)[C@H](C)[C@@H](O[C@@H]2O[C@H](C)[C@@H](O)[C@H](N(C)C)[C@H]2O)[C@@H](C[C@@H](C(=O)NC(C)(C)C)N(C)C(C)=O)C[C@@H](C)C(=O)/C=C/C(C)=C/[C@@H]1CO[C@H]1O[C@@H](C)[C@H](O)[C@H](OC)[C@@H]1OC,6,11,–
CC[C@H]1OC(=O)C[C@@H](O)[C@H](C)[C@@H](O[C@@H]2O[C@H](C)[C@@H](O)[C@H](N(C)C)[C@H]2O)[C@@H](CC(C(=O)NC(C)(C)C)N(CCCCN)C(=O)c2ccccc2)C[C@@H](C)C(=O)/C=C/C(C)=C/[C@@H]1CO[C@H]1O[C@@H](C)[C@H](O)[C@H](OC)[C@@H]1OC (mixture of isomers),6,36,–
CC[C@H]1OC(=O)C[C@@H](O)[C@H](C)[C@@H](O[C@@H]2O[C@H](C)[C@@H](O)[C@H](N(C)C)[C@H]2O)[C@@H](CC(C(=O)NC(C)(C)C)N(CCCNC(=O)OCc2ccccc2)C(=O)c2ccccc2)C[C@@H](C)C(=O)/C=C/C(C)=C/[C@@H]1CO[C@H]1O[C@@H](C)[C@H](O)[C@H](OC)[C@@H]1OC (mixture of isomers),47,64,–
CC[C@@H](C)CN(C(=O)c1ccccc1)C(C[C@H]1C[C@@H](C)C(=O)/C=C/C(C)=C/[C@H](CO[C@H]2O[C@@H](C)[C@H](O)[C@H](OC)[C@@H]2OC)[C@@H](CC)OC(=O)C[C@@H](O)[C@H](C)[C@H]1O[C@@H]1O[C@H](C)[C@@H](O)[C@H](N(C)C)[C@H]1O)C(=O)NC(C)(C)C (some centres undefined),25,52,–
CCCN(C(=O)c1ccccc1)C(C[C@H]1C[C@@H](C)C(=O)/C=C/C(C)=C/[C@H](CO[C@H]2O[C@@H](C)[C@H](O)[C@H](OC)[C@@H]2OC)[C@@H](CC)OC(=O)C[C@@H](O)[C@H](C)[C@H]1O[C@@H]1O[C@H](C)[C@@H](O)[C@H](N(C)C)[C@H]1O)C(=O)NC(C)(C)C (mixture of isomers),16,41,–
CC[C@H]1OC(=O)C[C@@H](O)[C@H](C)[C@@H](O[C@@H]2O[C@H](C)[C@@H](O)[C@H](N(C)C)[C@H]2O)[C@@H](CC(C(=O)NC(C)(C)C)N(CCCCN=[N+]=[N-])C(=O)c2ccccc2)C[C@@H](C)C(=O)/C=C/C(C)=C/[C@@H]1CO[C@H]1O[C@@H](C)[C@H](O)[C@H](OC)[C@@H]1OC (mixture of isomers),46,64,–
CCCC(=O)N(C(C)C)C(C[C@H]1C[C@@H](C)C(=O)/C=C/C(C)=C/[C@H](CO[C@H]2O[C@@H](C)[C@H](O)[C@H](OC)[C@@H]2OC)[C@@H](CC)OC(=O)C[C@@H](O)[C@H](C)[C@H]1O[C@@H]1O[C@H](C)[C@@H](O)[C@H](N(C)C)[C@H]1O)C(=O)NC(C)(C)C (mixture of isomers),43,83,–
CC[C@H]1OC(=O)C[C@@H](O)[C@H](C)[C@@H](O[C@@H]2O[C@H](C)[C@@H](O)[C@H](N(C)C)[C@H]2O)[C@@H](CC=O)C[C@@H](C)C(=O)/C=C/C(C)=C/[C@@H]1CO[C@H]1O[C@@H](C)[C@H](O)[C@H](OC)[C@@H]1OC,57,84,2 to 4
CCCCNC(=O)C(C[C@H]1C[C@@H](C)C(=O)/C=C/C(C)=C/[C@H](CO[C@H]2O[C@@H](C)[C@H](O)[C@H](OC)[C@@H]2OC)[C@@H](CC)OC(=O)C[C@@H](O)[C@H](C)[C@H]1O[C@@H]1O[C@H](C)[C@@H](O)[C@H](N(C)C)[C@H]1O)N(C(=O)c1ccccc1)C(C)C (mixture of isomers),31,57,–
CCC(=O)N(C(C)C)C(C[C@H]1C[C@@H](C)C(=O)/C=C/C(C)=C/[C@H](CO[C@H]2O[C@@H](C)[C@H](O)[C@H](OC)[C@@H]2OC)[C@@H](CC)OC(=O)C[C@@H](O)[C@H](C)[C@H]1O[C@@H]1O[C@H](C)[C@@H](O)[C@H](N(C)C)[C@H]1O)C(=O)NC(C)(C)C (mixture of isomers),38,71,–
"CC[C@H]1OC(=O)C[C@@H](O)[C@H](C)[C@@H](O[C@@H]2O[C@H](C)[C@@H](O)[C@H](N(C)C)[C@H]2O)[C@@H](CC(C(=O)NC(C)(C)C)N(C)C(=O)c2ccccc2)C[C@@H](C)C(=O)/C=C/C(C)=C/[C@@H]1CO[C@H]1O[C@@H](C)[C@H](O)[C@H](OC)[C@@H]1OC (single isomer, unassigned)",–,–,2 to 4
CCCC(=O)OC(C[C@H]1C[C@@H](C)C(=O)/C=C/C(C)=C/[C@H](CO[C@H]2O[C@@H](C)[C@H](O)[C@H](OC)[C@@H]2OC)[C@@H](CC)OC(=O)C[C@@H](O)[C@H](C)[C@H]1O[C@@H]1O[C@H](C)[C@@H](O)[C@H](N(C)C)[C@H]1O)C(=O)NC(C)(C)C (some centres undefined),58,90,–
CC[C@H]1OC(=O)C[C@@H](O)[C@H](C)[C@@H](O[C@@H]2O[C@H](C)[C@@H](O)[C@H](N(C)C)[C@H]2O)[C@@H](CC(C(=O)NC(C)(C)C)N(C(=O)c2ccccc2)c2ccccc2)C[C@@H](C)C(=O)/C=C/C(C)=C/[C@@H]1CO[C@H]1O[C@@H](C)[C@H](O)[C@H](OC)[C@@H]1OC (mixture of isomers),22,36,–
CC[C@H]1OC(=O)C[C@@H](O)[C@H](C)[C@@H](O[C@@H]2O[C@H](C)[C@@H](O)[C@H](N(C)C)[C@H]2O)[C@@H](CC(C(=O)NC(C)(C)C)N(C)C(=O)c2ccccc2)C[C@@H](C)C(=O)/C=C/C(C)=C/[C@@H]1CO[C@H]1O[C@@H](C)[C@H](O)[C@H](OC)[C@@H]1OC (mixture of isomers),69,99,–
CC[C@H]1OC(=O)C[C@@H](O)[C@H](C)[C@@H](O[C@@H]2O[C@H](C)[C@@H](O)[C@H](N(C)C)[C@H]2O)[C@@H](CC(OC(=O)c2ccccc2)C(=O)NC(C)(C)C)C[C@@H](C)C(=O)/C=C/C(C)=C/[C@@H]1CO[C@H]1O[C@@H](C)[C@H](O)[C@H](OC)[C@@H]1OC (mixture of isomers),18,52,–
CC[C@H]1OC(=O)C[C@@H](O)[C@H](C)[C@@H](O[C@@H]2O[C@H](C)[C@@H](O)[C@H](N(C)C)[C@H]2O)[C@@H](CC(C(=O)NC(C)(C)C)N(CC)C(=O)c2ccccc2)C[C@@H](C)C(=O)/C=C/C(C)=C/[C@@H]1CO[C@H]1O[C@@H](C)[C@H](O)[C@H](OC)[C@@H]1OC (mixture of isomers),11,20,–

# Source: ChEMBL document CHEMBL4387762, “Multicomponent synthesis of α-acylamino and α-acyloxy amide derivatives of desmycosin and their activity against gram-negative bacteria” (2019)
